Laboratory results from ChEMBL document CHEMBL5365441, “Novel Foscan®-derived ring-fused chlorins for photodynamic therapy of cancer” (Bioorg Med Chem, 2023).

What was measured:
[1] = tested on: MDA-MB-231; assay: Photocytotoxicity against human MDA-MB-231 cells assessed as reduction in cell viability preincubated for 24 hrs followed by washout and 1 J/cm2 light irradiation for 24 hrs by resazurin reduction assay; assay type: functional, cell-based; settings: MDA-MB-231, light or radiation study
[2] = tested on: MDA-MB-231; assay: Cytotoxicity against human MDA-MB-231 cells assessed as reduction in cell viability incubated for 24 hrs under dark condition by resazurin reduction assay; assay type: functional, cell-based; settings: MDA-MB-231, 24 h
[3] = tested on: MDA-MB-231; assay: Phototherapeutic index, ratio of IC50 for cytotoxicity against human MDA-MB-231 cells under dark condition to IC50 for photocytotoxicity against human MDA-MB-231 cells in presence of 1 J/cm2 light irradiation; assay type: functional
[4] = Cytotoxicity against mouse NIH/3T3 cells assessed as reduction in cell viability incubated for 24 hrs under dark condition by resazurin reduction assay; assay type: toxicity, cell-based, NIH3T3
[5] = Photocytotoxicity against mouse NIH/3T3 cells assessed as reduction in cell viability preincubated for 24 hrs followed by washout and 1 J/cm2 light irradiation for 24 hrs by resazurin reduction assay; assay type: toxicity, cell-based, NIH3T3
[6] = Drug internalization in human MDA-MB-231 cells at 2.5 uM by flow cytometry analysis; assay type: ADME, cell-based; settings: mda-mb-231, 2.5 µM, TDE = time-dependent effect, time 3-24 hrs
[7] = Drug internalization in mouse NIH/3T3 cells at 2.5 uM by flow cytometry analysis; assay type: ADME, cell-based; settings: nih3t3, 2.5 µM, TDE = time-dependent effect, time 3-24 hrs
[8] = Photostability of compound in DMSO assessed as photodecomposition quantum yield; assay type: physicochemical
[9] = Emission property of compound in DMSO assessed as fluorescence quantum yield; assay type: physicochemical
[10] = Induction of singlet oxygen production in EtOH assessed as singlet oxygen quantum yield by SOSG reagent based assay; assay type: functional
[11] = Drug distribution in endoplasmic reticulum of human U2OS cells expressing CALR-GFP assessed as increase in fluorescence intensity at 5 uM incubated for 24 hrs by Hoechst staining based confocal microscopic analysis; assay type: ADME, subcellular
[12] = Drug distribution in golgi body of human U2OS cells expressing GALT1-GFP assessed as increase in fluorescence intensity at 5 uM incubated for 24 hrs by Hoechst staining based confocal microscopic analysis; assay type: ADME, subcellular

Row | Structure (SMILES) | Drug uptake [6] | Drug uptake [7] | Activity [8] | Activity [9] | Drug uptake [11] | Drug uptake [12] | IC50 [1] [nM] | IC50 [2] [nM] | Ratio IC50 [3] | IC50 at 24 h [4] [nM] | IC50 [5] [nM] | Activity [10]
1 | [N-]=[N+]=NCc1cc2n(n1)CC1c3nc(c(-c4cccc(O)c4)c4ccc([nH]4)c(-c4cccc(O)c4)c4nc(c(-c5cccc(O)c5)c5ccc([nH]5)c3-c3cccc(O)c3)C=C4)C1C2 (centres undefined) | Tde | Tde | 60.8 10^-6No_unit | 0.12 |  |  | 106 | 15800 | 149.7 | 10600 | 93.1 | 0.47
2 | COC(=O)c1cc2n(n1)CC1c3nc(c(-c4cccc(OC(C)=O)c4)c4ccc([nH]4)c(-c4cccc(OC(C)=O)c4)c4nc(c(-c5cccc(OC(C)=O)c5)c5ccc([nH]5)c3-c3cccc(OC(C)=O)c3)C=C4)C1C2 (centres undefined) | Tde | Tde | 66.9 10^-6No_unit | 0.11 | Not Active | Not Active | 1.3 | > 10000 |  | > 10000 | 617 | 0.45
3 | Oc1cccc(-c2c3nc(c(-c4cccc(O)c4)c4ccc([nH]4)c(-c4cccc(O)c4)c4nc(c(-c5cccc(O)c5)c5ccc2[nH]5)C=C4)C=C3)c1 | Tde | Tde |  |  |  |  | 25.7 | 3310 |  | 9160 | 12.5 | 

More lines, main results first:

Row | Drug uptake [6] | Drug uptake [7] | Activity [8] | Activity [9] | Drug uptake [11] | Drug uptake [12] | Structure (SMILES) | IC50 [1] [nM] | IC50 [2] [nM] | Ratio IC50 [3] | IC50 at 24 h [4] [nM] | IC50 [5] [nM] | Activity [10]
4 | Tde | Tde | 54.8 10^-6No_unit | 0.1 |  |  | OCc1nn2c(c1CO)CC1c3nc(c(-c4cccc(O)c4)c4ccc([nH]4)c(-c4cccc(O)c4)c4nc(c(-c5cccc(O)c5)c5ccc([nH]5)c3-c3cccc(O)c3)C=C4)C1C2 (centres undefined) | 309 | 11400 | 37 | > 10000 | 343 | 0.49
5 | Tde | Tde | 52.7 10^-6No_unit | 0.1 | Active | Active | OCc1cc2n(n1)CC1c3nc(c(-c4cccc(O)c4)c4ccc([nH]4)c(-c4cccc(O)c4)c4nc(c(-c5cccc(O)c5)c5ccc([nH]5)c3-c3cccc(O)c3)C=C4)C1C2 (centres undefined) | 86.3 | 7740 | 93.37 | > 10000 | 107 | 0.5
6 | Tde | Tde | 60.8 10^-6No_unit | 0.11 |  |  | COC(=O)c1cc2n(n1)CC1c3nc(c(-c4cccc(O)c4)c4ccc([nH]4)c(-c4cccc(O)c4)c4nc(c(-c5cccc(O)c5)c5ccc([nH]5)c3-c3cccc(O)c3)C=C4)C1C2 (centres undefined) | 138 | 7740 | 56.27 | > 10000 | 109 | 0.53
